Measurements published in ChEMBL document CHEMBL1144262, “Identification of putative metabolites of docosahexaenoic acid as potent PPARgamma agonists and antidiabetic agents” (Bioorg Med Chem Lett, 2005).

What was measured:
[1] = In vivo body weight gain was observed in db/db mouse 4 weeks after oral administration (once daily) of 100 mg/kg of compound; (n=6); assay type: ADME, organism-based; design: dose 100 mg/kg, route oral; settings: 672 h
[2] = In vivo blood glucose level was observed in db/db mouse 4 weeks after oral administration (once daily) of 100 mg/kg of compound; (n=6); assay type: ADME, organism-based; design: dose 100 mg/kg, route oral; settings: 672 h
[3] = In vivo blood glucose level was observed in ZDF rats 2 weeks after oral administration (once daily) of 30 mg/kg of compound; (n=6); settings: rat, 336 h
[4] = In vivo triglyceride level was observed in db/db mouse 4 weeks after oral administration (once daily) of 100 mg/kg of compound; (n=6); assay type: ADME, organism-based; design: dose 100 mg/kg, route oral; settings: 672 h
[5] = In vivo triglyceride level was observed in ZDF rats 2 weeks after oral administration (once daily) of 30 mg/kg of compound; (n=6); settings: rat, 336 h
[6] = In vivo body weight gain was observed in ZDF rats 2 weeks after oral administration (once daily) of 30 mg/kg of compound; (n=6); settings: rat, 336 h

CCc1ccc(CCOc2ccc(CC3SC(=O)NC3=O)cc2)nc1 (stereo unspecified) [PIOGLITAZONE]
Activity [1]: 15.5 g | Glucose level [2]: 432 mg/dL | Glucose level [3]: 174 mg/dL | Triglyceride level [4]: 73 mg/dL | Triglyceride level [5]: 109 mg/dL | Activity [6]: 96.6 g
